The values below come from patent EP0974351A2, “Medicament for preventing and treating gastrointestinal damage” (JOUVEINAL, priority 1998, dated 2000).

Where “and” joins values, the source holds several entries; their conditions need not be identical. Equal values may be shown once.

Experiment [1] relates to TNBS-Induced Chronic Colonic Allodynia. Nature of the experiment: TNBS-induced chronic colonic allodynia in rats (colonic distension threshold). Type of experiment: in vivo, Male Sprague-Dawley rats. The settings on record: rat, in vivo. On the procedure:
GABA analogs were evaluated in rats suffering from chronic visceral allodynia induced by trinitrobenzene sulfonic acid (TNBS).
In humans, digestive disorders are often associated with visceral pain. In these pathologies, the visceral pain threshold is decreased, indicating a visceral hypersensitivity. Consequently, the following study was designed to evaluate the effect of injection of TNBS into the colon on visceral pain threshold in an experimental model of colonic distension.
(§1) Male Sprague-Dawley rats weighing 340 to 400 g were used in the study. The animals were housed three per cage in a regulated environment (20 ± 1°C, 50 ± 5% humidity, with light 8:00 AM to 8:00 PM). Under anethesia (ketamine 80 mg/kg i.p.; acepromazin 12 mg/kg i.p.), TNBS (50 mg/kg), or saline (1.5 mL/kg) was injected into the proximal colon (1 cm from the cecum). After the surgery, animals were individually housed in the regulated environment.
(§2) A balloon catheter (5-6 cm length) was inserted through the anus into the colon and kept in position (tip of balloon 5 cm from the anus) by taping the catheter to the base of the tail. The balloon was progressively inflated by step of 5 mm Hg, from 0 to 75 mm Hg, each step of inflation lasting 30 seconds. Each cycle of colonic distension was controlled by a standard barostat. The threshold corresponds to the pressure which produced the first abdominal contraction, at which time the cycle of distension was discontinued. To determine the colonic threshold, four cycles of distension were performed on the same animal.
In a second series, a group of eight rats treated with TNBS were subjected to a colonic distension session.
In a third series, a group of eight rats treated with TNBS received a subcutaneous (sc) injection of gabapentin or CI-1008 30 minutes prior to initiation of the colonic distension cycle.
(§3) All test compounds were dissolved in saline except TNBS. TNBS was dissolved in EtOH 30% (w/v). Subcutaneous injection of vehicle was given in a volume of […].
(§4) Statistical significance between each group was determined using a one-way ANOVA followed by Student's unpaired t-test. Differences were considered statistically significant at p <0.05.
Pain threshold (pressure of distension inducing the first abdominal contraction) after distal colonic distension was determined at Day 7 in two groups of awake rats: control animals and TNBS-treated animals. […] Inflammatory parameters (colon weight, area of hyperemia and necrosis and colonic myeloperoxidase content) were measured in the proximal colon at Day 7 after TNBS treatment.
Gabapentin (100, 300, and 500 mg/kg sc) and CI-1008 (30, 60, 100, and 200 mg/kg sc) were administered 30 minutes before colonic distension and measurement of the inflammatory parameters.

Experiment [2] has as its system Colonic Threshold in Normal Rats. Nature of the experiment: Colonic distension pain threshold in normal rats. Type of experiment: in vivo, Male Sprague-Dawley rats. The following applies: rat, in vivo. On the procedure:
as §1, §2
In a first series of experiments, a group of eight rats treated with saline were subjected to a colonic distension session.
as §3, §4

For `CN1CC[C@]23c4c5ccc(O)c4O[C@H]2[C@@H](O)C=C[C@H]3[C@H]1C5` [Morphine], in experiment [1], the “Colonic Threshold” value is 34.22 mm Hg and 46.09 mm Hg and 64.84 mm Hg; the “TNBS-induced decrease in pain threshold after colonic distension (in words)” value is “completely suppressed”. Further, in experiment [2], the “colonic pain threshold in normal conditions (control animals), in words” value is given as “significantly increased”.
